Experimental data from patent US20230000888A1, “NAD-PRECURSORS AND DIETARY RESTRICTION FOR TREATING AGE RELATED MEDICAL CONDITIONS” (Leibniz-Institut für Alternsforschung - …, priority 2019, published 2023).
Entries after “also recorded” stand apart in the source; their conditions may differ. Counter-ions that a name gives are not always drawn.

Tests used:
old mice = conditions: previous studies; cited from earlier work
HSCs (CD150+CD34−LSK) = assay: Competitive transplantation of HSCs from dietary cohorts, repopulation capacity (peripheral blood chimerism); format: in vivo; conditions: HSCs from young mice; 2 weeks intervention; FIG. 14A
CMPs [1] = assay: Seahorse basal oxygen consumption rate after NR pre-treatment followed by 3I; format: cell-based, mice; conditions: FIG. 12F
Description: (F) Basal oxygen consumption rate in CMPs from young (3-5 months, n=4) and old mice (22-24 months, n=4). Cells were either pretreated with 1 mM […] (NR) or DMSO (Con) for 12 h. This was followed by treatment for 12h in vitro to combination of 3 inhibitors of mitochondrial nutrient uptake (by BPTES=6 uM, Etomoxir=6 uM, UK5099=6 uM) or DMSO as control. The data were not normally distributed (Shapiro-Wilk test) and the Mann-Whitney test was used for the calculation of p-values.
(§1) To test the hypothesis that NAD(P) availability limits the potential of HSPCs from old mice to respond to changes in nutrient availability, freshly isolated HSCs from young and old mice were exposed to inhibitors of mitochondrial nutrient uptake.
For CMP and GMP 80,000 cells were used. For MPP 60,000 cells were used.

HSCs = assay: HSC culture with NR pre-treatment followed by 3I, number of CD48−Sca1+ cells; format: cell-based; conditions: NR-treated (1 mM) HSCs from old mice; 3I 6 μM each; FIG. 12E
Excerpt: The NR treatment was continued on das 3 and 4. […] N=3 HSC cultures derived from 3 individual mice per group. […] Error bars depict SD.
as §1
For testing the response of HSPCs to the blocking of glycolysis or mitochondrial ATP synthesis, 2-DG (Sigma, D8375) or oligomycin A (Sigma, 75351) were used. For the inhibition of nutrient uptake into mitochondria, three inhibitors (3I) were used. BPTES (Sigma, SML0601) blocks […] uptake, Etomoxir (Sigma E1905) blocks Fatty acids uptake, and UK5099 (Sigma PZ0160) blocks pyruvate uptake. The final concentration of each inhibitor in the culture medium is 6 μM. Same amount of DMSO was used in the medium as control. For determination of cell number after NR treatment 500 HSCs from young (2-3 months) and old (22-24 months) were pre-incubated either with 1 mM NR (provided by Prof. Johan Auwerx Lab) or DMSO as control for 2 days followed by 2 days treatment with the inhibitors (BPTES, Etomoxir and UK5099, 6 μM each) or same amount of DMSO as control. The cells were then analyzed by BD LSR fortessa.

[2] = system: stress response genes in HSCs; assay: NanoString mRNA analysis of stress response genes in freshly isolated HSCs from dietary cohorts; format: in vivo, mice; conditions: 2 weeks, listed as NR-alone
Excerpt: (§2) FIG. 13 (A-J) Young (2-3 month old) and old (22-24 month old) mice were exposed for 2 weeks to the indicated diet: ad libitum diet (AL), dietary restriction (DR=CRD), NAD-precursor supplementation (=NR), NR/DR—combination of NR plus DR.
(G-K) NanoString mRNA analysis of stress response genes in freshly-isolated HSCs from young (Y) and old (O) mice that were exposed to ad libitum (AL) or dietary restriction (DR diet for 2 weeks) of NAD-precursor treatment (NR) or a combination of NR plus DR (=NR/DR). The dotted lines represent the q-value of 0.05.
To analyze whether the NR/DR-mediated re-installment of mitochondrial metabolic plasticity in HSCs from old mice could rescue the induction of metabolic stress signals, freshly isolated HSCs from 2-week dietary cohorts were analyzed with the same NanoString assay as described above.
Measuring of RNA expression by NanoString was done according to our previous publication (Chen et al., 2019) and according to manufacturer protocol (NanoString technologies). In brief, 1×10^4 cells were lysed in 2 μL of lysis/binding solution (Applied Biosystems, 8500G14). […]

[3] = system: 22-24 months old female mice; assay: Lifespan (Kaplan Meier survival) of old mice under long-term dietary treatments; format: in vivo
Description: (B) Kaplan Meier survival analysis in cohorts of mice that were exposed to DR-alone, NR-alone, or NR/DR co-treatment compared to AL-feeding. Dietary interventions were started at the age of 22-24 months and continued over lifetime. […] P-values were calculated using Mantel-Cox test. The p-values that are shown next to the intervention naming refer to the comparison of the intervention to the AL-diet group.
To test effects of these dietary intervention on organism lifespan, 4 cohorts of 22-24 months old female mice (n=14-15 mice per group) were exposed to long-term treatments (until the end of life or the occurrence of humane endpoints).

[4] = system: stress response genes in MPPs (CD34+Flt3−LSK); assay: NanoString analysis of stress response genes in MPPs pre-treated in vitro with NR followed by 3I or vehicle; format: cell-based, mice
Description: (C,D) NanoString analysis on the expression of stress response genes was carried out on 10,000 MPPs (CD34^+Flt3^−LSK) from young (3-4 months, n=4) and old mice (22-24 months, n=4). MPPs were pre-treated in culture with 1 mM NR or DMSO (Con) for 12h followed by treatment with 31 or Vehicle (Veh: 0.4% DMSO) for 12h under continuation of NR or Veh treatment. (C,D) Volcano plots for the NanoString analysis.
(G,H) NanoString analysis on the expression of stress response genes was carried out on 10,000 MPPs (CD34^+Flt3^−LSK) from young (3-4 months, n=4) and old mice (22-24 months, n=4). MPPs were pre-treated in vitro with 1 mM NR or DMSO (Con) for 12h followed by treatment with 31 or Vehicle (Veh: 0.4% DMSO) for 12h. The NR treatment was continued for the time window of 12-24h. (G, H) Volcano plots on the NanoString analysis of stress response genes.
as §1
Measuring of RNA expression by NanoString was done according to our previous publication (Chen et al., 2019) and according to manufacturer protocol (NanoString technologies). In brief, 1×10^4 cells were lysed in 2 μL of lysis/binding solution (Applied Biosystems, 8500G14). The cell lysate was then used for hybridization reaction as following: 2 μL of cell lysate was mixed with 5 μL of nCounter hybridization buffer (NanoString), 2 μL of Core Tagset, 2 μL of extension Tagset, 0.5 μL of […] Probe A working pool, 0.5 μL of […] probe A extension Pool, 0.5 μL of 3 nm Probe B working pool, and 0.5 μL of 3 nM Probe B extension pool (from IDT technologies). 2 μL of Nuclease-free water was added to each reaction to reach a final volume of 15 μL. The reaction mixture was prepared in Strip tubes (from NanoString technologies). Then it was incubated at 67° C. using thermal cycler (Masterycler from Eppendorf) for 16 h. Afterward, the Nanostring chemistry was processed automatically using nCounter prep-station 5s (NanoString technologies) according to manufacturer protocol. Directly after the run, the nCounter Cartridge was loaded into nCounter digital analyzer 5s (NanoString technologies). For NanoString analysis on young and old mice exposed to DR or AL food, freshly FACS-Sorted MPPs (CD34^+Flt3^− LSK) were used. […] Cells from NR treatment and DMSO were divided into 2 halves and further treated with 3I (6 μM each) or DMSO as control. The cells were harvested for NanoString analysis as described above. Data analysis was done after background correction using nSolver advanced analysis software (v.4) and (R software v 3.3.2.). The following housekeeping genes were used for normalization: ActB, B2M, Gapdh, Gusb, Hprt, PGK1, Polr1b, Polr2a, Ppia, Rpl19, Sdha, and Tbp. Heatmaps and volcano plots was done using GraphPad prism software version 8.

CMPs [5] = assay: Respirometry (OCR) of freshly isolated CMPs from mice fed NR, DR or NR/DR; format: in vivo; conditions: 2 weeks
Excerpt: as §2
(A-C) Respirometry analysis of the OCR of freshly-isolated CMPs in: (A) young and (B) old mice; (C) Quantification of OCR at basal level of the indicated groups as measured in (A,B, before oligomycin-application, marked by 0). N=4-6 mice per group. The Data were normally distributed (Shapiro-Wilk test) after log transformation. Error bars represent SD. P-values were calculated on average data of 4 time points using 2-way ANOVA with Tukey's multiple comparisons test on log-transformed data.
To experimentally test whether mitochondrial enhancement could re-empower DR (=CRD) in old mice, young and old mice were exposed to NAD+ supplementation by feeding of nicotinamide riboside (NR). In addition, the mice were exposed for 2 weeks to DR (=CRD), starting 1 week after NR pre-feeding, or continuous AL feeding.

female Drosophila = conditions: 400 μM, high-fat diet; cited from earlier work
CMPs [6] = assay: OCR of CMPs in glucose-restricted medium from old mice fed CRMs with or without NAD-precursor; format: in vivo; conditions: old mice (22-24 months), 2 weeks, glucose depletion, FIG. 15
Description: FIG. 15—Old (22-24 months old) mice were exposed for 2 weeks to the indicated diet: ad libitum (AL), Metformin (met), NAD-precursor (NR), NRM—combination of NR plus Metformin. Curves show respirometry analysis of the OCR of freshly isolated CMPs. The OCRs were continuously measured for 12h in freshly isolated CMPs grown in glucose-restricted medium (1 mM=R).
To test whether NAD precursor supplementation would cooperate with specific CRMs that mimic a certain sub-pathway induced by CRD, different classes of CRMs were employed. We tested the combined effects of NAD supplementation with • (a) Metformin—a CRM, which induces mitochondrial stress • (b) Pterostilbene—a CRM which induces Sirtuin-dependent stress responses including autophagy • (c) Spermidine—a CRM, which induces autophagy (ad ownstream target of sirtuins (see above)
Old mice (22-24 months) were fed with CRMs (a-c) with or without combination with NAD-precursor supplementation for 2 weeks before analysis. Freshly isolated hematopoietic cells (CMPs) were tested for a rescue in responsiveness to activate mitochondria in response to glucose depletion—a marker of metabolic improvement induced by CRD in young mice or by a combination of NAD precursor supplementation plus CRD in old mice. […]

[7] = Y.Con + 3I versus O.NR + 3I, MPPs, 12 h pre-treatment with NR

SMILES: NC(=O)c1ccc[n+]([C@@H]2O[C@H](CO)[C@@H](O)[C@H]2O)c1 [NR, Nicotinamide riboside]
- increase in lifespan when applied to old mice (old mice): 6.9%
- repopulation capacity of HSCs (HSCs (CD150+CD34−LSK)): increased the repopulation capacity
- response to 3I-treatment: oxidative metabolism (CMPs [1]; NR-treated (1 mM) cells from old mice, 3I 6 uM each): reduction of oxidative metabolism
- oxidative metabolism (basal oxygen consumption rate) (CMPs [1]; cells from old mice, 1 mM NR): rescued oxidative metabolism to a similar level as observed in HSCs from young mice
- response to 3I-treatment: cell proliferation (HSCs): suppression of cell proliferation
- induction of metabolic stress signals (stress response genes) ([2]; HSCs from young mice, FIG. 13G): induction of health-promoting stress response genes in young mice; also recorded: induced metabolic stress signals
- induction of metabolic stress signaling (stress response genes) ([2]; HSCs of old mice, FIG. 13I,K): neither of the single treatments, NR-alone (FIG. 13I) or DR-alone (FIG. 13J) was able to induce metabolic stress signaling
- increase in median life expectancy compared to AL ([3]; late-life treatment of old mice, this study): 10%
- lifespan compared to AL-fed control mice ([3]; treatment started at 22-24 months, continued over lifetime, FIG. 14B): slight increases in lifespan
- IDH1-mRNA LogZFC [4, 7]: −2.62
- Ino1-mRNA LogZFC [4, 7]: −1.78
- Myh9-mRNA LogZFC [4, 7]: −2.45
- NRas-mRNA LogZFC [4, 7]: −2.16
- Pds5A-mRNA LogZFC [4, 7]: −3.08
- atp5a1-mRNA LogZFC [4, 7]: 1.11
- unspliced XBP1-mRNA LogZFC [4, 7]: 2.56
- changes in the transcription of stress response genes in old vs. young cells ([4]; cells exposed to 3I-treatment, 1 mM NR, FIG. 12H): reverted changes in the transcription of stress response genes
- pre-existing, age-related changes in transcription of stress response genes ([4]; old vs. young cells not exposed to 3I-treatment, 1 mM NR, FIG. 11C-E): no significant effects
- mitochondrial respiration compared to AL-fed mice (CMPs [5]; old mice, FIG. 13B,C): neither of the single treatments was sufficient to induce mitochondrial respiration
- mitochondrial respiration compared to AL-fed mice (CMPs [5]; young mice, FIG. 13A,C): significant increases in mitochondrial respiration

SMILES: Oc1ccc(C=Cc2cc(O)cc(O)c2)cc1 [resveratrol, Resveratrol]
- extension of the lifespan (female Drosophila): 10%-15%

SMILES: CN(C)C(=N)N=C(N)N [metformin, Metformin-Hydrochlorid, reference compound]
- synergistic effects of NAD precursor supplementation combined with the CRM on inducing mitochondria activity (OCR) (CMPs [6]): synergistic effects on inducing mitochondria activity
